From patent US20190274300A1, “PRESERVATIVE SOLUTION FOR LIVE CELLS OR COMPOSITION CONTAINING LIVE CELLS” (TERUMO KABUSHIKI KAISHA, priority 2016, published 2019)

Test system: sheet-shaped human skeletal myoblast cell culture
Test: Cell survival rate confirmation test: sheet-shaped cell culture kept refrigerated in preservative solution, PI staining, flow cytometry
Type: cell-based
Conditions: 2° C. to 8° C.
Description: The sheet-shaped cell cultures were prepared using skeletal myoblast cells (with fibroblast cells contained therein) prepared from a human skeletal muscle by a usual or known method. A cell mixture of human skeletal myoblast cells and human fibroblast cells suspended in a 20% human serum-containing DMEM/F12 medium (Thermo Fisher Scientific Inc.) was seeded at 3.7×10^6 cells/well on a temperature-responsive culture dish (UpCell® 12 well Multi-well, CellSeed Inc.), and was then subjected to the sheet-formation cultivation at 37° C. under 5% CO2 for 12 to 26 hours. After the sheet-formation cultivation, the medium was removed, 700 μL of HBSS (+) (Thermo Fisher Scientific Inc.) which was chilled to 4° C. was added, and then the resultant was left to stand for 10 minutes. Then, gentle pipetting was conducted such as to detach the sheet-shaped cell culture completely.
After the sheet-shaped cell culture was completely detached, HBSS (+) was removed, and a fresh supply of room-temperature HBSS (+) was added to conduct rinsing. Such a washing step was repeated four times.
The sheet-shaped cell culture left to stand under the refrigerated conditions in (1) above was put to measurement of cell survival rate. After the sheet-shaped cell culture left to stand in the preservative solution for a predetermined period was dissociated with a trypsin-like protease, the cells were dispensed into a FACS tube to be 3.5×10^5 cells, followed by centrifugation, and the supernatant was discarded. To the resultant was added 3 ml of 0.5% BAS-containing PBS solution, and, after rinsing the cells by vortex, centrifugation was conducted, the supernatant was removed, and 500 μL of a propidium iodide (PI, Becton Dickinson) prepared to a final concentration of 0.6 μg/mL by use of a 0.5% BSA-containing PBS solution was added and mixed. Immediately after the mixing, the mixture was put to reaction at room temperature under a light shielding condition for approximately five minutes. After the reaction, a 0.5% BSA-containing PBS solution was added, the cells were rinsed by vortex, followed by centrifugation, then the supernatant was removed, 500 μL of a 0.5% BSA-containing PBS solution was added, and the resultant was put to an analysis. The analysis was conducted using a flow cytometer (Becton Dickinson), and the proportion of PI-unstained cells contained in the whole cells admixed with PI was measured. […]
As a control, a DMEM medium (Thermo Fisher Scientific Inc.) was used.

CC1=NN(c2ccccc2)C(=O)C1 [edaravone, 3-methyl-1-phenyl-2-pyrazolin-5-one]
cell survival rate (1 μM edaravone in physiological saline solution, five days): approximately 95%
cell survival rate as compared to the case of no addition of edaravone (1 μM or 10 μM edaravone in physiological saline solution, five days): increased
cell survival rate (10 μM edaravone in physiological saline solution, five days): approximately 97%
lowering in the number of live cells from three days to seven days of preservation, compared to edaravone-nonadded HBSS (+) (100 μM edaravone in HBSS (+)): restrained
cell survival rate as compared to HBSS (+) not admixed with edaravone (100 μM edaravone in HBSS (+), three days to seven days): higher cell survival rate

tocopherol [vitamin E]
cell survival rate (10 μM vitamin E in physiological saline solution, three days): approximately 65%
cell survival rate (100 μM vitamin E in physiological saline solution, three days): approximately 65%

O=C1O[C@H]([C@@H](O)CO)C(O)=C1O [vitamin C, ascorbic acid]
cell survival rate (0.2 mM vitamin C in physiological saline solution, three days): approximately 63%
cell survival rate (2 mM vitamin C in physiological saline solution, three days): approximately 85%
